From US20110071173A1, “IMIDAZOQUINAZOLINE DERIVATIVES AS ANAGRELIDE ANALOGUES FOR THE TREATMENT OF MYELOPROLIFIC DISEASES AND THROMBOTIC DISEASES” (Shire LLC, priority 2008, published 2011)

Legend:
[1] = tested on: TPO-induced megakaryocytopoiesis; conditions: cited from earlier work
[2] = target: human phosphodiesterase III (PDE III); conditions: cited from earlier work
[3] = tested on: erythroid or myelomonocytic differentiation; conditions: stimulated by erythropoietin or granulocyte-macrophage colony-stimulating factor; cited from earlier work
[4] = cited from earlier work
[5] = tested on: human phosphodiesterase III (PDE III); assay: PDE III inhibition; assay type: biochemical; conditions: versus anagrelide
[6] = pharmacokinetics in vivo (half-life, exposure, first pass); set-up: species or system human; conditions: after anagrelide treatment

Row | potency as PDE III inhibitor relative to anagrelide [5] | exposure in vivo relative to parent drug [6] | SMILES | IC50 ([1]; in vitro, human megakaryocytopoiesis, read-out: estimated IC50, inhibition of TPO-induced megakaryocytopoiesis) [nM] | IC50 [2] [nM] | effect on erythroid or myelomonocytic differentiation [3] | first pass effect ([4]; in vivo) [%] | potency in inhibition of megakaryocytopoiesis relative to parent drug ([1]; versus anagrelide) | half-life ([4]; typical) [h]
1 |  |  | O=C1CN2Cc3c(ccc(Cl)c3Cl)N=C2N1 [Anagrelide, 6,7-dichloro-1,5-dihydroimidazo[2,1-b]-quinazolin-2(3H)-one] | ~26 | ~29 | does not affect | > 50 |  | 
2 | over 40 fold | 2-3 fold | O=C1NC2=Nc3ccc(Cl)c(Cl)c3CN2C1O (stereo not drawn) [3-hydroxyanagrelide] |  |  |  |  | no more potent than the parent drug | 2.5
3 |  |  | Cc1[nH]c(=O)c(C#N)cc1-c1ccncc1 [milrinone] |  | 170 to 350 |  |  |  | 
